In patent US20100166662A1, “MAGNETIC RESONANCE IMAGING METHOD USING VANADYL-BASED CONTRAST AGENTS” (The University of Chicago, priority 2006, published 2010):

Legend:
[1] = test system: 3T3-L1 adipocytes; test: Uptake of 2-deoxy-D-[1-14C]glucose by 3T3-L1 adipocytes; type: cell-based
Description: The effect of vanadyl compounds on uptake of 2-deoxy-D-[1-^14C]glucose by 3T3-L1 adipocytes was measured using methods described in Makinen, M. W., et al., “Structural Origins of the Insulin-Mimetic Activity of Bis(acetylacetonato)oxovanadium(IV),” J. Biol. Chem. 277 (2002) pp. 12215-12220, which is incorporated herein by reference. Serum-starved, differentiated […] adipocytes were used in the metabolic assays. Cells were washed twice with phosphate-buffered isotonic saline at 37° C. and serum-starved for 2.5 hours in Krebs-Ringer buffer lacking bovine serum albumin or serum. The medium was removed, and cells were incubated for 30 minutes in buffer with different concentrations of VO^2+-based contrast agents with or without serum albumin (1 mM) prior to measuring glucose uptake rates. Glucose transport rates were measured by the addition of 20 μM 2-deoxy-D-[1-^14C] glucose.

[2] = test system: p-AKT; test: Cell signaling study, Western blot of p-AKT in Caco-2 and HCA-7 cells; type: cell-based, human; conditions: 5 min; for level of p-AKT compared to controls: Caco-2 and HCA-7 cells
Description: (§1) HCA-7 and Caco-2 cells derived from human colonic adenocarcinomas obtained from the American Type Culture Collection, Manassas, Va. were cultured at 37° C. in a humidified atmosphere of 5% CO2-95% air in 6-well plates (250,000 cells/well/2 mL in 5% serum medium). When cells were ˜70-80% confluent, cells were transferred to serum-free media and kept overnight. A vanadyl compound was added to a well to a final concentration of 100, 250, or 500 μM and incubated for 5 minutes. In each 6-well plate, 2 wells were set as controls and 4 wells were set for one desired concentration of a vanadyl compounds. Cells were then homogenized in 2× Laemmli sodium dodecyl sulfate (SDS) buffer. Samples were boiled for 5 minutes at 100° C. and proteins quantified using the RC-DC protein assay (Bio-Rad). Western blotting was then carried out, briefly described as follows. SDS-treated samples (50 μg/lane) were separated by SDS-polyacrylamide gel electrophoresis (PAGE) on a 4-15% resolving gel. Pre-stained molecular weight markers were included in each gel. Gels were electroblotted to immobilon-P transfer membranes (Millipore Billerica, Mass.). Following blocking of non-specific antibody binding, the blots were exposed to rabbit polyclonal anti-pAKT (Cell Signaling Technology, Danvers, Mass.) or mouse monoclonal anti-pERK (Santa Cruz Biotechnology, Inc., Santa Cruz, Calif.) and developed with secondary antibody using standard methods. The blots were washed, and the p-AKT and p-ERK were detected in film and digitized for final quantification.
FIG. 3 illustrates two Western blots of p-AKT using Caco-2 (left panel) and HCA-7 cells (right panel) treated with VO(acac)2 in a concentration of 100, 250 or 500 μM (top, middle and bottom rows, respectively). Lane 1 is the control; lanes 2 and 3 are duplicates of cells exposed to VO(acac)2 a particular concentration of VO(acac)2. These blots were analyzed by […] on X-OMAT™ autoradiogram films using an enhanced chemiluminesence system.

[3] = test system: p-ERK; test: Cell signaling study, Western blot of p-ERK in Caco-2 and HCA-7 cells; type: cell-based, human; conditions: 100, 250 or 500 μM, 5 min
Description: as §1, with “Following blocking of non-specific antibody binding, the blots were exposed to rabbit polyclonal anti-pAKT (Cell Signaling Technology, Danvers, Mass.) or mouse monoclonal anti-pERK (Santa Cruz Biotechnology, Inc., Santa Cruz, Calif.) and developed with secondary antibody using standard methods.” left out

[4] = T1 relaxivity of the contrast agent in buffer; type: physicochemical; conditions: 0.01 M HEPES buffer pH 7.4 with 0.15 M NaCl; 4.7 Tesla
Description: The T1 relaxation times of VO(acac)2 in 0.01 M HEPES buffer at pH 7.4 with 0.15 M NaCl were determined. With the determined T1 values at different concentrations of VO(acac)2, the relaxivity was determined using equation 1,
where T1m is the measured T1 for VO(acac)2, T1w is the T1 for water, C is the concentration of the contrast agent, and r1 is the relaxivity. The relaxivity for VO(acac)2 of 2.5±0.2 mM^−1s^−1 is slightly lower but close to that of known contrast agents of gadolinium complexes of 4.3±0.2 mM^−1s^−1 at 4.7 Tesla. This means that VO(acac)2 can produce significant, easily detectable changes in MR image intensity.

[5] = Toxicity study in tumor-bearing nude mice (blood parameters, i-STAT); type: in vivo; conditions: 1 mmol/kg via tail vein, monitored over three days, mice bearing AT6.1 tumor
Description: Toxicity studies were performed with tumor-bearing nude mice weighing about 25-30 grams (n=5). An AT6.1 prostate tumor was implanted subcutaneously in the hind limb of the mouse. 1 mmol/kg of VO(acac)2 was administered through a catheter placed in the tail vein. The VO(acac)2 was dissolved in dimethyl sulfoxide and the resulting solution was diluted with saline. The final concentration of DMSO was about 5% by volume. The solution was about 10 mM VO(acac)2.
The pH, pCO2, HCO3^−, TCO2, serum O2, Na^+, K^+, Ca^2+, glucose, blood urea nitrogen (BUN), Hematocrit (Hct) and hemoglobin (Hb) were monitored using an i-STAT analyzer (East Windsor, N.J.) by taking ˜30 μL blood samples over a period of three days.

[6] = test system: AT6.1 prostate tumor; test: In vivo MRI and contrast media dynamics in rats bearing AT6.1 tumors; design: species or system Copenhagen rat; conditions: rat
Description: MRI studies were performed using a 4.7 Tesla Bruker scanner with multi-slice echo-planner spectroscopic imaging (EPSI). The scanning parameters were as follows: TR/TE of 800/80 msec; field of view 40 mm; array size of 256×256; slice thickness of 0.5 mm; and, an average of 1.
First, high-resolution reference images were acquired by conventional spin echo and gradient echo pulse sequences using multiple slices. These reference images provided anatomic reference information and were used to accurately measure tumor volume. Then multi-slice (usually 3 slices) echo-planner spectroscopic imaging (EPSI) with repetition time (TR) of 800 msec and echo time (TE) of 80 msec were acquired. Acquisition of MRI data using high-resolution EPSI pulse sequence may also be used. These sequence images were acquired with spatial resolution of 200 micron in-plane in ˜500 micron slices and spectral resolution of 2 Hz. These images were acquired at the same spatial resolution as conventional images but provided increased sensitivity to contrast media effects.
A Dunning AT6.1 prostate tumor was implanted subcutaneously in the hind limb of a Copenhagen rat. The tumor was monitored and imaging began when the tumor reached a size of 5-10 mm. The VO^2+-based contrast agent was dissolved in dimethyl sulfoxide and the resulting solution was diluted with saline. The final concentration of DMSO was about 5% by volume. The solution was about 10 mM VO^2+-based contrast agent.
After 6 to 8 pre-contrast MR images were obtained as a reference, 0.15 mmol/kg of VO(acac)2 was injected through a catheter placed in the tail vein of the rat over 5 minutes. During MR imaging, the rats were anesthetized using isofluorane mixed with air and oxygen flowing through a mask. Exhaust gases were eliminated through an F-Air canister attached to the mask set up. Temperature was monitored continuously by a rectal thermometer and controlled with a warm water blanket. Heart rate, respiration rate, and blood pressure were monitored using an optical detector system from SA Instruments (Stony Brook, N.Y.). To minimize motion artifacts, rats were wrapped in co-flex and taped to a Plexiglass board. The leg was secured through the coil in a plastic tube and taped to the cradle.
Post-contrast EPSI scans were acquired for about 4 hours. Each EPSI scan took about 3.5 minutes. Images were used in which the intensity was proportional to the peak height of the water resonance in each voxel. […]
0.15 mmol/kg of VO(acac)2 was injected through a catheter placed in the tail vein of the rat over 5 minutes. […] Temperature was monitored continuously by a rectal thermometer and controlled with a warm water blanket. Heart rate, respiration rate, and blood pressure were monitored using an optical detector system from SA Instruments (Stony Brook, N.Y.). […]

[7] = test system: AT6.1 prostate tumors; test: Vanadyl concentration in tumor and muscle tissue by atomic absorption spectroscopy; type: in vivo, nude mice; conditions: at 5 hours after about 0.15 mmol/kg i.v., mice
Description: AT6.1 prostate tumors were implanted subcutaneously in the hind limbs of nude mice. The tumors were monitored and allowed to grow to about 6-8 mm over a period of about 2 weeks. The VO^2+-based contrast agent was dissolved in dimethyl sulfoxide and the resulting solution was diluted with saline. The final concentration of DMSO was about 5% by volume. The solution was about 10 mM VO^2+-based contrast agent. VO(acac)2 was added slowly to the tail vein of each mouse using a syringe infusion pump (Harvard Apparatus, South Natick, Mass.). A total of 100 μL of solution were added in 5 minutes (flow rate=20 μL/minute) for a total dosage of about 0.15 mmol/kg. All mice were kept in a cage and monitored after injection. The mice were then sacrificed at various times. Tissue samples of the tumors and muscles were removed after a mouse was sacrificed. The tissue samples were weighed and then digested by wet digestion using H2O2 and HNO3. Atomic absorption measurements were carried out using Perkin Elmer AAnalyst 300 with an HGA 800 furnace. Control sets (n=3) were free of contrast agent. Measurements were based on standard curves of known vanadyl concentration with a correlation coefficient of 0.99820.

[8] = Solubility in aqueous solutions at physiological pH; type: physicochemical
Description: Bis(acetylamido)oxovanadium(IV) [VO(acac-NH2)2]. VO(acac-NH2)2 was synthesized according to the procedure described by Crans et al., “Bis(acetylamido)oxovanadium(IV) Complexes: Solid State and Solution Studies,” J. Chem. Soc. Dalton Trans. (2001) pp. 3337-3345. One equivalent of vanadyl sulfate was dissolved in water followed by the addition of 3-equivalents of acetoacetamide under constant stirring. A solution of 10% sodium bicarbonate was then added dropwise to raise the pH from 1.5 to 3.6 in order to form a suspension. A bluish precipitate was obtained after allowing the solution to stand for one day at 4° C. The precipitate was filtered off, washed with a small amount of chloroform, and dried under vacuum.
Bis(acetylacetanato-bisNH2)oxovanadium(IV) [VO(acac-(NH2)2)2]. VO(acac-(NH2)2)2 is synthesized as follows. One equivalent of vanadyl sulfate is dissolved in water followed by the addition of 3 equivalents of malonamide under constant stirring. A solution of 10% sodium bicarbonate is then added dropwise to raise the pH in order to form a suspension. A bluish precipitate is obtained after standing the solution for one day at 4° C. The precipitate is filtered off, washed with a small amount of chloroform, and dried under vacuum.

[9] = 0.15 mmol/kg i.v. over 5 minutes, AT6.1 tumor

Compound: Cc1occc(=O)c1[O-].Cc1occc(=O)c1[O-].[O]=[V+2] [VO(malto)2, Bis(maltolato)oxovanadium(IV)]
- dependence of increase in glucose uptake on compound:serum albumin ratio ([1]; data not shown): no clear dependence
- enhancement of glucose uptake per equivalent of VO2+ compared with VO(acac)2 and VO(OPT)2 ([1]; data not shown): markedly less
- glucose uptake (effect in words) ([1]; with or without 1 mM serum albumin, data not shown): facilitate glucose uptake

Compound: O=S(=O)([O-])[O-].[O]=[V+2] [VOSO4, vanadyl sulfate, reference compound]
- activation of p-AKT (in words) ([2]; 100, 250 or 500 μM): did not induce measurable activation
- activation of p-ERK (in words) [3]: did not induce measurable activation

Compound: Bis(acetylacetonato)oxovanadium(IV) [VO(acac)2]
- relaxivity r1 [4]: 2.5 ± 0.2 mM⁻¹ s⁻¹
- uptake of glucose ([1]; in the presence of equimolar concentrations of serum albumin, 30 min incubation): maximally enhanced
- level of p-AKT compared to controls ([2]; 100 μM): 2 fold
- level of p-AKT compared to controls ([2]; 250 μM): 5 fold
- level of p-AKT compared to controls ([2]; 500 μM): 12 fold
- blood pH, pCO2, HCO3−, TCO2, serum O2, Na+, K+, Ca2+, glucose, BUN, Hct, Hb [5]: fell within the normal range
- MR signal enhancement in tumor regions, often as high as [6, 9]: ≤ 100%
- MR signal enhancement in tumor regions, typical [6, 9]: greater than 50%
- enhancement in muscle for a long time after injection ([6]; 0.15 mmol/kg i.v.): relatively little enhancement in muscle
- T1 and T2* contrast ([6]; 0.15 mmol/kg i.v., 4.7 Tesla): excellent T1 and T2* contrast
- vanadyl concentration in tumor tissue [7]: remained relatively high

Compound: Bis(acetylamido)oxovanadium(IV) [VO(acac-NH2)2]
- solubility in aqueous solutions [8]: completely soluble
